{"source": "paper PMC1190152", "about": "“Archazolid and apicularen: Novel specific V-ATPase inhibitors” (BMC Biochemistry, 2005)", "key": {"M1": {"tested_on": "M1", "experiment": "Growth inhibition of M1 cells (MTT assay)", "format": "cell-based, mouse", "conditions": "120 h; M1, mouse embryogenic fibroblast cell line; MTT after 5 days; read-out: IC50 growth inhibition", "method": "(§1) Cell lines were obtained from the German Collection of Microorganisms and Cell Cultures (DSMZ). Cell lines 3Y1 and M1 (embryonal fibroblasts from 129/Ola × C57BL/6 mice, [30]) were a generous gift from Dr. S. Miyamoto, Fukoka, Japan, and Dr. P. F. Mühlradt, Braunschweig, Germany. All cell lines were cultivated under conditions recommended by the supplier. Growth inhibition was measured in microtiterplates. Aliquots of 120 μl of the suspended cells (50,000/ml) were given to 60 μl of a serial dilution of the inhibitor. After 5 days, growth was determined using the MTT assay."}, "[1]": {"target": "T1, V-ATPase holoenzyme from the midgut of the tobacco hornworm (Manduca sexta, UniProt P31403)", "T1 construct": "purified V-ATPase holoenzyme from the midgut of the tobacco hornworm; from tissue; host or cells: midgut of fifth instar Manduca sexta larvae", "T1 sequence (P31403 whole entry)": "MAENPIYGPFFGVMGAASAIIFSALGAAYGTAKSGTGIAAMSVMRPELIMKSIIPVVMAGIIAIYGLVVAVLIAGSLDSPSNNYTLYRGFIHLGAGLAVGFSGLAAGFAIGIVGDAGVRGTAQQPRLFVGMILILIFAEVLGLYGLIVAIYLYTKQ", "experiment": "Inhibition of purified V-ATPase holoenzyme activity", "format": "biochemical", "method": "The V-ATPase holoenzyme was purified as published elsewhere. Preparation of highly purified membranes containing Na^+/K^+-ATPase from pig kidney followed the protocol of Jørgensen with the three main steps of differential centrifugation, incubation with SDS in the presence of ATP and sucrose density gradient centrifugation in a fixed angle rotor, and led to a specific enzyme activity which was in the same range as that reported by the authors. The resulting sample was stored frozen at -20°C. To prepare crude membrane extracts, the hearts of three mice were washed three times with an ice-cold buffer of pH 8.1 consisting of 0.25 M sucrose, 5 mM Tris-HCl, 5 mM EDTA, and 10 mM Pefabloc SC (Biomol), homogenized in 5 ml of this buffer and centrifuged at 4°C for 25 min at 233,000 × gmax in a fixed angle rotor. The resulting pellet was resuspended in 5 ml of a buffer of pH 7.5, consisting of 5 mM Tris-MOPS (3-morpholinopropanesulfonic acid), 10 mM NaCl, 10 mM Pefabloc SC, 9.6 mM 2-mercaptoethanol, 0.53 mM EGTA and 0.1 % Triton X-100. After an aliquot for protein determination had been taken, 10% bovine serum albumin (final concentration) was added to the suspension which was then stored on ice until the activity assays were run. Beef heart mitochondria were isolated by differential centrifugation, following the protocol of Smith by using a blender to homogenize the heart mince. The initial homogenization buffer consisted of 250 mM saccharose, 10 mM KH2PO4, 10 mM Tris, 2 mM EGTA, 2 mM MgCl2, pH 7.4, and further isolation procedures were carried out in the same medium without EGTA [24]. Submitochondrial particles were obtained by ultrasonic treatment of the mitochondria.\nStandard V-ATPase assays with a final volume of 160 μl and a pH of 8.1 consisted of 3–4 μg of protein, 50 mM Tris-MOPS, 3 mM 2-mercaptoethanol, 1 mM MgCl2, 20 mM KCl, 0.003% C12E10, 20 mM NaCl, and 3 mM Tris-HCl. After 5 min of pre-incubation at 30°C with or without inhibitors, 1 mM Tris-ATP was added and after incubation for 2 min the reaction was stopped by placing the tube in liquid nitrogen. Assays using Na^+/K^+-ATPase were performed in 160 μl at pH 7.5 and contained 0.5 μg of protein, 50 mM Tris-MOPS, 5 mM imidazole, 0.2 mM EDTA, 4 mM MgCl2, 20 mM KCl and 100 mM NaCl. After 5 min of pre-incubation at 37°C with or without inhibitors, 3 mM Tris-ATP was added and after 1 min of incubation the reaction was stopped by placing the tube in liquid nitrogen. […] After 5 min of pre-incubation at 30°C with or without inhibitors, 1 mM Tris-ATP was added and after an incubation time of 10 min the reaction was stopped by placing the tubes in liquid nitrogen. ATPase assays with submitochondrial particles from beef heart were performed in a final volume of 1 ml and a pH of 8.0. The samples contained 9–12 μg protein, 50 mM Tris, 50 mM KCl and 2.5 mM MgCl2. After 5 min of preincubation with or without inhibitors, 5 mM ATP was added, and after an additional incubation time of 15 min the reaction was stopped by the addition of 0.4 ml of 20 % TCA.\nInorganic phosphate produced in the assays of V-ATPase, Na^+/K^+-ATPase and mouse heart F-ATPase was measured according the protocol of Wieczorek et al., while the determination of inorganic phosphate produced in the assays of beef heart F-ATPase followed the method of Fiske and Subarrow using ascorbic acid as reducing agent.\nFifth instar larvae of M. sexta (Lepidoptera, Sphingidae), weighing 6–8 g, were reared under long day conditions (16 h of light) at 27°C using a synthetic diet modified according to Bell et al."}, "A-594": {"tested_on": "A-594", "parameters": "method as in PMID 10048565", "conditions": "A-594, human lung carcinoma; ref [15]; read-out: IC50 growth inhibition; cited from earlier work"}, "3Y1": {"tested_on": "3Y1", "experiment": "Growth inhibition of 3Y1 cells (MTT assay)", "format": "cell-based, rat", "conditions": "120 h; 3Y1, rat embryogenic fibroblast cell line; MTT after 5 days; read-out: IC50 growth inhibition", "method": "as §1"}, "bacterial growth": {"tested_on": "bacterial growth", "conditions": "ref [11],[15],[17]; cited from earlier work"}, "KB-V1": {"tested_on": "KB-V1", "experiment": "Growth inhibition of multidrug-resistant KB-V1 cells (MTT assay), with or without verapamil", "format": "cell-based", "conditions": "120 h; KB-V1, mdr human cervix carcinoma; without verapamil; MTT after 5 days", "method": "The novel antibiotics archazolids and apicularens (Fig. 1) were checked for their impact on the cell growth of a variety of mammalian cell lines from different tissues (Tab. 1). […] Apicularen B was the only exception, with an average IC50 value two orders of magnitude higher. Growth inhibition of the multidrug-resistant cell line KB-V1 was also measured in the presence of verapamil. […] The data in Tab 1. show, that unlike the archazolids, the apicularens are poor substrates of Pgp. To visualize the impact of the antibiotics, PtK2 (potoroo kidney) cells were incubated with the inhibitors and stained for intact acidic lysosomes (Fig. 2). […] The same observation was made with KB-3-1 cells (data not shown). […] Unlike the cell lines listed in Tab. 1, the growth of PtK2 cells was not completely stopped. The same holds true for A-498 cells (human kidney carcinoma). Both cell lines grow epithelial-like. There was obviously a differential reaction of cell lines to V-ATPase inhibitors. For A-431 cells (human epidermoid carcinoma) a dependence on the expression of the EGF receptor was shown.\nas §1"}, "L-929": {"tested_on": "L-929", "experiment": "Growth inhibition of L-929 cells (MTT assay)", "format": "cell-based", "conditions": "Mus musculus, L929, 120 h; L-929, murine connective tissue; MTT after 5 days", "method": "as §1"}}}
{"smiles": "CC/C=C\\C=C/C(=O)N/C=C/CC1CC2CC(O[C@@H]3O[C@H](CO)[C@@H](O)[C@H](O)[C@H]3NC(C)=O)CC(Cc3cccc(O)c3C(=O)O1)O2", "note": "(some centres unmarked) [apicularen B]", "values": [{"measurement": "IC50", "setting": "M1", "result": 190, "unit": "nM"}, {"measurement": "IC50 per mg of protein, purified V-ATPase", "setting": "[1]; equivalent of the half-maximal concentration", "result": "~2.4 nmol per mg of protein"}, {"measurement": "IC50", "setting": "[1]; purified holoenzyme, 3–4 μg protein, pH 8.1, 30°C, read-out: half-maximal inhibition concentration of purified V-ATPase", "result": "~60", "unit": "nM"}, {"measurement": "IC50", "setting": "A-594", "result": 310, "unit": "nM"}, {"measurement": "IC50", "setting": "3Y1", "result": 310, "unit": "nM"}, {"measurement": "inhibition of bacterial growth", "setting": "bacterial growth", "result": "failed to inhibit"}, {"measurement": "IC50", "setting": "KB-V1", "result": 1600, "unit": "nM"}, {"measurement": "IC50", "setting": "L-929", "result": 620, "unit": "nM"}]}
